Values quoted from earlier work in patent US8212016B2, “NPC1L1 orthologues” (Schering Corporation, priority 2006, dated 2012).

Biological target: T1, human NPC1L1 (Homo sapiens, UniProt Q9UHC9, T1073A)
T1 construct: expressed in transfected cells
T1 sequence (Q9UHC9 22-1332 isoform Q9UHC9-2 T1046A): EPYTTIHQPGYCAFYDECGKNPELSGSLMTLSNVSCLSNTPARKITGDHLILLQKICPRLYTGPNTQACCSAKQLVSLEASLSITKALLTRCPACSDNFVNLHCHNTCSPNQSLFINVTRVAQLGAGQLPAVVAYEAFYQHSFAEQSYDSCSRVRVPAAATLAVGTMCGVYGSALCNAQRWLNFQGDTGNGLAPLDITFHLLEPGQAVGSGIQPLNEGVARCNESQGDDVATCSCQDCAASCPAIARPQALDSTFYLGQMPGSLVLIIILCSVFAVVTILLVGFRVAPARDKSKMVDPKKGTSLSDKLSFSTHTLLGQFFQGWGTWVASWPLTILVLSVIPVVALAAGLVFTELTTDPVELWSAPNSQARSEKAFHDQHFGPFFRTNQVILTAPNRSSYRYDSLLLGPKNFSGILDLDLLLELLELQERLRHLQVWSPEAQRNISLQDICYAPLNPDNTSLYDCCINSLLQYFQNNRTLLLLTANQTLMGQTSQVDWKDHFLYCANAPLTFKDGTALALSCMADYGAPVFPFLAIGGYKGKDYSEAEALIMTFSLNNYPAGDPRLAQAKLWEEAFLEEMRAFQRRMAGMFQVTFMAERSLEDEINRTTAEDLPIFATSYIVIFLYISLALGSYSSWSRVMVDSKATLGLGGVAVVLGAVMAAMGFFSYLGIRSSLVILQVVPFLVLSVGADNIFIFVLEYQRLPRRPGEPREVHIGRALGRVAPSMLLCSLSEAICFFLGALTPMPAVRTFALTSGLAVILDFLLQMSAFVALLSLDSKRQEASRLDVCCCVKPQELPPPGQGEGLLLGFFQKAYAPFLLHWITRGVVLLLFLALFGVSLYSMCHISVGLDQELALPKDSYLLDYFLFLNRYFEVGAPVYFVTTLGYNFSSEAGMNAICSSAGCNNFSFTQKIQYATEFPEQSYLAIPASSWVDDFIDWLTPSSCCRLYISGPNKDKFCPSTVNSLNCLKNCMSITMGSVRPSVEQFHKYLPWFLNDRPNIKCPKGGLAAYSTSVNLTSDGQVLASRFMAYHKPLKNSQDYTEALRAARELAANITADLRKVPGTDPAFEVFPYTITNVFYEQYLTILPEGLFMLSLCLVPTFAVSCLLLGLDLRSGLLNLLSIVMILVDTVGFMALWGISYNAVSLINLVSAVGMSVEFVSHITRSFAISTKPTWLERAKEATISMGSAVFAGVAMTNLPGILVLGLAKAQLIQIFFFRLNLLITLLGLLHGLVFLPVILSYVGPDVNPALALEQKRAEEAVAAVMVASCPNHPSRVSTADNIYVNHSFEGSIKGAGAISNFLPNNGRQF
Settings: human NPC1L1, Garcia-Calvo et al. 2005; read-out: Kd, previously reported; cited from earlier work

In the case of `O=C(O)[C@H]1O[C@@H](Oc2ccc([C@@H]3[C@@H](CC[C@H](O)c4ccc(F)cc4)C(=O)N3c3ccc(F)cc3)cc2)[C@H](O)[C@@H](O)[C@@H]1O` [compound 4, glucuronidated ezetimibe], the Kd is given as 220 nM.
